In patent US10738041B2, “Ferroportin inhibitors” (Vifor (International) AG, priority 2015, dated 2020):

Tests used:
[1] = target: T1, ferroportin (Fpn) (Mus musculus, UniProt Q9JHI9); assay: Hepcidin Internalization Assay (J774); format: cell-based; details: average of multiple measurements; inhibition of TMR-hepcidin (25 nM) internalization into J774 cells; read-out: J774 IC50
T1 construct: host or cells: J774 mouse macrophage cell line, Fe(III)-NTA induced
T1 sequence (Q9JHI9 1-570): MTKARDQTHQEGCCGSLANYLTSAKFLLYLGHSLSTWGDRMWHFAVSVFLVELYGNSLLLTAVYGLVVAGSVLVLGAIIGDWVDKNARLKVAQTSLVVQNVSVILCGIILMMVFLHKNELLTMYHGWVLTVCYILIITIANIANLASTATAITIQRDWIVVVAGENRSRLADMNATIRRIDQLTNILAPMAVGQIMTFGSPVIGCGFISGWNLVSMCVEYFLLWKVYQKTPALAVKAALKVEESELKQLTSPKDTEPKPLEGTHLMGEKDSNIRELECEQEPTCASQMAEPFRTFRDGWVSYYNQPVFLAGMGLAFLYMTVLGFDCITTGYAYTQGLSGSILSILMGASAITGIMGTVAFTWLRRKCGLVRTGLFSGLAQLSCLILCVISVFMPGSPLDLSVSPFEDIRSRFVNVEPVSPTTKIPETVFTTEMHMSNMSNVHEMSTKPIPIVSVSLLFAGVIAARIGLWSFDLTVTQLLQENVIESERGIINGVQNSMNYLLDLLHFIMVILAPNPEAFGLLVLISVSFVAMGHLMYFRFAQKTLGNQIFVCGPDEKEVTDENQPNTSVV
Text: This cellular assay allows quantification of the binding of hepcidin to ferroportin (Fpn) through microscopic detection of internalization of a fluorescently labeled hepcidin into J774 cells. […] Binding of hepcidin to Fpn triggers internalization and degradation of both hepcidin and Fpn. However, the TMR (6-carboxytetramethylrhodamine) fluorophore attached to hepcidin remains associated with the cell after degradation of the hepcidin peptide backbone. Therefore, microscopic detection of ceH associated TMR fluorescence is a measure of hepcidin binding to Fpn and internalization of hepcidin and Fpn. If TMR-hepcidin is prevented from binding to Fpn, cellular TMR fluorescence remains low (Dürrenberger et al, 2013). The effect of small molecular weight Fpn inhibitor compounds in this assay was evaluated in vitro as described below.
J774 cells, harvested from ca. 80% confluent cultures, were plated at 8×10^5 cells/ml in complete medium (DMEM, 10% FBS, 1% Penicillin-Streptomycin) containing 200 μM Fe(III)NTA (nitrilotriacetic acid), 100 μl per well of 96 well MicroClear plates (Greiner; Cat. 655090) and grown at 37° C. with 5% CO2. After overnight incubation, cells were washed 3 times with pre-warmed DMEM w/o phenol red, 30 μl/well of DMEM w/o phenol red was added after the final wash and 10 μl/well of dilution series of test compounds were added in triplicates. […] Cells were incubated in a total volume of 50 μl at 37° C. with 5% CO2 for 2 hours, then Hoechst 33342 dye was added to a final concentration of 0.5 μg/ml to stain nuclei and further incubated for 10 min. at 37° C. with 5% CO2. Cells were washed 3 times with PBS and fixed in 100 μl of 4% paraformaldehyde in PBS for 15 min. at room temperature. After removal of the paraformaldehyde solution, cells were washed 3 times with PBS leaving 100 μl per well and the plates were sealed with foil plate seal. TMR (530-550 nm excitation/575-625 nm emission/400 ms exposure time) and Hoechst 33342 (360-370 nm excitation/420-460 nm emission/10 ms exposure time) fluorescence images were acquired using a ScanR plate imager (Olympus) with a 20× high NA objective. Four pictures were acquired per well and fluorescence channel covering ca. 1500 cells per well. The acquired image data was analysed with the ScanR image analysis software. Image analysis included detection of nuclei (Hoechst 33342 fluorescence), identification of cell-associated regions, application of a virtual channel and thresholding for rolling-ball-type background reduction, followed by application of the Sum(Mean) algorithm to measure the TMR fluorescence associated with cells as a quantitative measure for internalized TMR-hepcidin. IC50 values were calculated with the Sum(Mean) raw data using “log(inhibitor) vs. response” curve fitting of Prism 5 software (GraphPad Software Inc., version 5.02).

[2] = target: T2, human Fpn (Homo sapiens, UniProt Q9NP59); assay: Biophysical Ferroportin-Hepcidin Binding Assay (fluorescence polarization); details: average of multiple measurements; 1 μM human Fpn, 20 nM TMR-hepcidin; read-out: FP IC50
T2 construct: FLAG (C); made in house; host or cells: Pichia pastoris
T2 sequence (Q9NP59 1-571): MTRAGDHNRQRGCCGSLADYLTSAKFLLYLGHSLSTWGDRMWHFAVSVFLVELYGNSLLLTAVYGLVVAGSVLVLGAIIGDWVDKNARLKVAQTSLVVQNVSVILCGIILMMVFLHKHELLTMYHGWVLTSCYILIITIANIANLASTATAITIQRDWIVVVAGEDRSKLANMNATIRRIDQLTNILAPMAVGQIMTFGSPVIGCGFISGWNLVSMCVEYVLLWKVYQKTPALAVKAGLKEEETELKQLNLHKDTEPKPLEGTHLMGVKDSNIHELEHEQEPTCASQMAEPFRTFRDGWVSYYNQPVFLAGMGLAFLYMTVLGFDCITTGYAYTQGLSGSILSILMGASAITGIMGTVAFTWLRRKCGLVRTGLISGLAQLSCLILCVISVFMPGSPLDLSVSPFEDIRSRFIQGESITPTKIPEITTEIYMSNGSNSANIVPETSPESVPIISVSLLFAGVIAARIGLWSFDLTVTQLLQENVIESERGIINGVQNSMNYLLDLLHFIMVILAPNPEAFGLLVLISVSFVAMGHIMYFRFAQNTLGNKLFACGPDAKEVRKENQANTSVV
Experimental: This biophysical assay was developed to confirm inhibition of hepcidin binding to ferroportin (Fpn) more directly. Incubation of TMR-hepcidin with purified human Fpn isolated from Pichia pastoris yeast cells expressing human Fpn with a C-terminal FLAG affinity tag (Bonaccorsi di Patti, 2014) leads to increased fluorescence polarization (FP) of the TMR-hepcidin ligand. Small molecular weight Fpn inhibitors were tested for inhibition of binding of TMR-hepcidin to Fpn, as detected by dose-dependent decrease of the TMR FP signal, as described in detail below.
8 μl of serial dilutions of test compounds were added in duplicates to reach final Fpn and TMR-hepcidin concentrations of 1 μM and 20 nM, respectively. Plates were incubated for 90 minutes at room temperature and parallel (S) and perpendicular (P) fluorescence was measured in a Synergy H1 fluorescence reader (BioTek). FP values were calculated in mP according to the following formula.

Row | Structure (SMILES) | IC50 [1] [nM] | IC50 [2] [nM]
1 | O=C(NCCc1ccccc1)c1csc(CCNCc2nc3ccccc3[nH]2)n1 [Example 78] | 410 | 4150
2 | O=C(NCc1ncccc1F)c1csc(CCNc2nc3ccccc3[nH]2)n1 [Example 121] | 473 | 5100
3 | O=C(NCc1ccc[nH]c1=O)c1csc(CCNCc2nc3ccccc3[nH]2)n1 [Example 83] | 96 | 1050
4 | O=C(NCc1ccccc1)c1ccc(CCNCc2nc3ccccc3[nH]2)cc1 [Example 66] | 410 | 53800
5 | O=C(NCc1ccccc1)c1csc(CCNCc2ccc(F)cn2)n1 [Example 6] | 12700 | 48600
6 | CC(NC(=O)c1csc(CCNCc2nc3ccccc3[nH]2)n1)c1ccccn1 (centres unmarked) [Example 80] | 345 | 2280
7 | O=C(NCc1ccccn1)c1csc(C2CCN(CCc3nc4ccccc4[nH]3)C2)n1 (centres unmarked) [Example 215] | 27700 | 15600
8 | CC(C)(NC(=O)c1csc(CCNCc2nc3ccccc3[nH]2)n1)c1ccccc1 [Example 26] | 700 | 1120
9 | Cc1ccnc(CNC(=O)c2csc(CCNCc3nc4ccccc4[nH]3)n2)c1 [Example 106] | 1520 | 4460
10 | O=C(NCc1ncccc1F)c1csc(CCNCCCc2nc3ccccc3[nH]2)n1 [Example 125] | 1660 | 3700
11 | O=C(NCc1cccs1)c1csc(CCNCc2nc3ccccc3[nH]2)n1 [Example 16] | 900 | 1720
12 | C=C(C)c1sc(CCNCc2nc3ccccc3[nH]2)nc1C(=O)NCc1ncccc1F [Example 177] | 4200 | 15400
13 | O=C(NCc1ccnc(N2CCOCC2)c1)c1csc(CCNCc2nc3ccccc3[nH]2)n1 [Example 96] | 2970 | 7290
14 | NC(=O)c1ccc(CNC(=O)c2csc(CCNCc3nc4ccccc4[nH]3)n2)cn1 [Example 54] | 460 | 11400
15 | COc1cc(CNC(=O)c2csc(CCNCc3nc4ccccc4[nH]3)n2)ccn1 [Example 104] | 900 | 1760
16 | O=C(NCc1ccccc1)c1csc(CCNCc2nc3cc(F)ccc3[nH]2)n1 [Example 31] | 1100 | 940
17 | O=C(NCc1ccccc1)c1csc(CCNCc2ncc[nH]2)n1 [Example 20] | 9400 | 9610
18 | O=C(NCc1ncccc1F)c1csc(CNCCCc2nc3ccccc3[nH]2)n1 [Example 119] | 164 | 5300
19 | O=C(NCc1ccccc1)c1csc(CCNCc2nc3cc(OC(F)(F)F)ccc3[nH]2)n1 [Example 62] | 930 | 436
20 | Cn1c(CNCCc2nc(C(=O)NCc3ccccc3)cs2)nc2ccccc21 [Example 28] | 180 | 1220

Row | Structure (SMILES) | IC50 [1] [nM] | IC50 [2] [nM]
21 | COc1ccc2[nH]c(CNCCc3nc(C(=O)NCc4ccccc4)cs3)nc2c1 [Example 50] | 410 | 1480
22 | O=C(NCc1nc2ccccc2[nH]1)c1csc(CCNCc2nc3ccccc3[nH]2)n1 [Example 60] | 2390 | 974
23 | CN(Cc1ccccc1)C(=O)c1csc(CCNCc2nc3ccccc3[nH]2)n1 [Example 17] | 6400 | 3530
24 | O=C(NCc1cccnn1)c1coc(C2CN(CCc3nc4c(F)cccc4[nH]3)C2)n1 [Example 261] | 554 | 440
25 | O=C(NCc1ccncc1)c1csc(CCNCc2nc3ccccc3[nH]2)n1 [Example 36] | 250 | 3650
26 | O=C(NCc1ccc(C(F)(F)F)nc1)c1csc(CCNCc2nc3ccccc3[nH]2)n1 [Example 81] | 420 | 2970
27 | O=C(NCc1ncc(F)cc1F)c1csc(CNCCCc2nc3ccccc3[nH]2)n1 [Example 124] | 6330 | 3500
28 | CN1CCOCC1CNC(=O)c1csc(CCNCc2nc3ccccc3[nH]2)n1 (centres unmarked) [Example 41] | 3980 | 12000
29 | O=C1N[C@@H](CCN2CCCc3nc4ccccc4n3C2)C(=O)N1CCc1ncccc1F [Example 240] | 2450 | 2670
30 | O=C(NCc1ccccc1)c1csc(CCNCc2cn3ccccc3n2)n1 [Example 34] | 360 | 4290
31 | COc1ccc(CNC(=O)c2csc(CCNCc3nc4ccccc4[nH]3)n2)nc1 [Example 45] | 440 | 2100
32 | CN(C)c1ccccc1CNC(=O)c1csc(CCNCc2nc3ccccc3[nH]2)n1 [Example 70] | 530 | 1060
33 | Cc1cnc(CNC(=O)c2nc(CCNCc3nc4ccccc4[nH]3)sc2Cl)nc1 [Example 178] | 3640 | 1920
34 | Cn1cc(CNC(=O)c2csc(CCNCc3nc4ccccc4[nH]3)n2)cn1 [Example 91] | 2070 | 12100
35 | O=C(Nc1ncccc1F)c1csc(CCNCc2nc3ccccc3[nH]2)n1 [Example 77] | 350 | 2810
36 | O=C(NCc1ccccc1OC(F)(F)F)c1csc(CCNCc2nc3ccccc3[nH]2)n1 [Example 72] | 1360 | 931
37 | O=C(NCc1ncccc1F)c1csc([C@H]2[C@@H]3CN(CCc4nc5ccccc5[nH]4)C[C@@H]32)n1 [Example 218] | 4500 | 2200
38 | O=C(NCc1ccccc1OC(F)F)c1csc(CCNCc2nc3ccccc3[nH]2)n1 [Example 74] | 210 | 451
39 | O=C(NCc1ncccc1F)c1csc(C2CCN(CCc3nc4ccccc4[nH]3)C2)n1 (centres unmarked) [Example 214] | 14100 | 3190
40 | O=C(c1csc(CCNCc2nc3ccccc3[nH]2)n1)N1CCCCC1 [compound 14] | 4900 | 14900
